Experimental data from the NIST ThermoML archive (doi:10.1016/j.jct.2016.11.002).

What was measured:
[1] = xn = mol fraction of the nth substance listed; conditions: 100 kPa, Liquid; for speed of sound: Frequency=3 MHz, Single path-length method; for mass density: Vibrating tube method
[2] = refractive index (Na D-line) (dimensionless); xn = mol fraction of the nth substance listed; conditions: 100 kPa, Liquid, Standard Abbe refractometry

CCOCCO [2-ethoxyethan-1-ol] + CCOC(=O)OCC
Conditions | mass density, [1] [kg/m3] | refractive index, [2] | speed of sound, [1] [m/s]
298.15 K, x2 = 0 | 925.54 | 1.4055 | 1302.8
298.15 K, x2 = 0.0957 | 929.94 | 1.4036 | 1287
298.15 K, x2 = 0.1529 | 932.54 | 1.4025 | 1278.3
298.15 K, x2 = 0.2624 | 937.43 | 1.4003 | 1262.2
298.15 K, x2 = 0.3484 | 941.21 | 1.3985 | 1250
298.15 K, x2 = 0.4447 | 945.38 | 1.3963 | 1236.7
298.15 K, x2 = 0.5468 | 949.76 | 1.3939 | 1223.5
298.15 K, x2 = 0.6539 | 954.3 | 1.3912 | 1210.8
298.15 K, x2 = 0.7721 | 959.31 | 1.3882 | 1198.3
298.15 K, x2 = 0.8793 | 963.87 | 1.3855 | 1188
303.15 K, x2 = 0 | 920.99 | 1.4042 | 1285
303.15 K, x2 = 0.0957 | 925.24 | 1.4024 | 1268.9
303.15 K, x2 = 0.1529 | 927.76 | 1.4012 | 1259.8
303.15 K, x2 = 0.2624 | 932.5 | 1.3989 | 1243.4
303.15 K, x2 = 0.3484 | 936.17 | 1.397 | 1230.7
303.15 K, x2 = 0.4447 | 940.24 | 1.3947 | 1217.3
303.15 K, x2 = 0.5468 | 944.5 | 1.3921 | 1204
303.15 K, x2 = 0.6539 | 948.94 | 1.3894 | 1191.1
303.15 K, x2 = 0.7721 | 953.83 | 1.3862 | 1178.3
303.15 K, x2 = 0.8793 | 958.31 | 1.3834 | 1167.8
308.15 K, x2 = 0 | 916.41 | 1.4028 | 1267.3
308.15 K, x2 = 0.0957 | 920.51 | 1.4011 | 1250.7
308.15 K, x2 = 0.1529 | 922.94 | 1.3999 | 1241.3
308.15 K, x2 = 0.2624 | 927.54 | 1.3975 | 1224.6
308.15 K, x2 = 0.3484 | 931.11 | 1.3954 | 1211.9
308.15 K, x2 = 0.4447 | 935.08 | 1.393 | 1198.3
308.15 K, x2 = 0.5468 | 939.21 | 1.3904 | 1184.7
308.15 K, x2 = 0.6539 | 943.54 | 1.3875 | 1171.6
308.15 K, x2 = 0.7721 | 948.31 | 1.3843 | 1158.4
308.15 K, x2 = 0.8793 | 952.72 | 1.3813 | 1147.6
313.15 K, x2 = 0 | 911.8 | 1.4016 | 1249.6
313.15 K, x2 = 0.0957 | 915.76 | 1.3999 | 1232.5
313.15 K, x2 = 0.1529 | 918.09 | 1.3987 | 1223
313.15 K, x2 = 0.2624 | 922.55 | 1.3961 | 1205.9
313.15 K, x2 = 0.3484 | 926 | 1.3939 | 1193
313.15 K, x2 = 0.4447 | 929.84 | 1.3914 | 1179.3
313.15 K, x2 = 0.5468 | 933.88 | 1.3886 | 1165.6
313.15 K, x2 = 0.6539 | 938.09 | 1.3857 | 1152.1
313.15 K, x2 = 0.7721 | 942.77 | 1.3823 | 1138.6
313.15 K, x2 = 0.8793 | 947.11 | 1.3792 | 1127.5
318.15 K, x2 = 0 | 907.15 | 1.4001 | 1232
318.15 K, x2 = 0.0957 | 910.93 | 1.3986 | 1214.4
318.15 K, x2 = 0.1529 | 913.21 | 1.3973 | 1204.6
318.15 K, x2 = 0.2624 | 917.51 | 1.3946 | 1187.2
318.15 K, x2 = 0.3484 | 920.86 | 1.3923 | 1174.3
318.15 K, x2 = 0.4447 | 924.57 | 1.3897 | 1160.4
318.15 K, x2 = 0.5468 | 928.49 | 1.3868 | 1146.6
318.15 K, x2 = 0.6539 | 932.6 | 1.3838 | 1132.8
318.15 K, x2 = 0.7721 | 937.19 | 1.3804 | 1119
318.15 K, x2 = 0.8793 | 941.45 | 1.377 | 1107.8
323.15 K, x2 = 0 | 902.46 | 1.3988 | 1214.3
323.15 K, x2 = 0.0957 | 906.11 | 1.3973 | 1196.3
323.15 K, x2 = 0.1529 | 908.28 | 1.396 | 1186.3
323.15 K, x2 = 0.2624 | 912.44 | 1.3931 | 1168.7
323.15 K, x2 = 0.3484 | 915.7 | 1.3907 | 1155.6
323.15 K, x2 = 0.4447 | 919.3 | 1.388 | 1141.6
323.15 K, x2 = 0.5468 | 923.1 | 1.3851 | 1127.5
323.15 K, x2 = 0.6539 | 927.1 | 1.382 | 1113.6
323.15 K, x2 = 0.7721 | 931.58 | 1.3784 | 1099.6
323.15 K, x2 = 0.8793 | 935.76 | 1.3749 | 1088.1

COCCO [2-methoxyethan-1-ol] + CCOC(=O)OCC
Conditions | mass density, [1] [kg/m3] | refractive index, [2] | speed of sound, [1] [m/s]
298.15 K, x2 = 0 | 960.32 | 1.4001 | 1342.1
298.15 K, x2 = 0.0645 | 960.64 | 1.3989 | 1322.5
298.15 K, x2 = 0.1406 | 961.01 | 1.3976 | 1302.2
298.15 K, x2 = 0.2248 | 961.49 | 1.3963 | 1282.2
298.15 K, x2 = 0.3025 | 961.99 | 1.3951 | 1265.8
298.15 K, x2 = 0.3928 | 962.65 | 1.3936 | 1248.7
298.15 K, x2 = 0.4994 | 963.51 | 1.3916 | 1231.2
298.15 K, x2 = 0.6007 | 964.44 | 1.3897 | 1216.9
298.15 K, x2 = 0.7212 | 965.66 | 1.3874 | 1202.5
298.15 K, x2 = 0.8496 | 967.12 | 1.3851 | 1189.7
303.15 K, x2 = 0 | 955.71 | 1.3981 | 1324.7
303.15 K, x2 = 0.0645 | 955.91 | 1.3969 | 1304.6
303.15 K, x2 = 0.1406 | 956.16 | 1.3957 | 1283.8
303.15 K, x2 = 0.2248 | 956.52 | 1.3943 | 1263.4
303.15 K, x2 = 0.3025 | 956.91 | 1.3931 | 1246.7
303.15 K, x2 = 0.3928 | 957.45 | 1.3915 | 1229.4
303.15 K, x2 = 0.4994 | 958.2 | 1.3895 | 1211.7
303.15 K, x2 = 0.6007 | 959.03 | 1.3876 | 1197.2
303.15 K, x2 = 0.7212 | 960.16 | 1.3853 | 1182.5
303.15 K, x2 = 0.8496 | 961.54 | 1.3829 | 1169.5
308.15 K, x2 = 0 | 951.08 | 1.3961 | 1307.4
308.15 K, x2 = 0.0645 | 951.16 | 1.395 | 1286.7
308.15 K, x2 = 0.1406 | 951.29 | 1.3938 | 1265.4
308.15 K, x2 = 0.2248 | 951.51 | 1.3924 | 1244.7
308.15 K, x2 = 0.3025 | 951.79 | 1.3911 | 1227.7
308.15 K, x2 = 0.3928 | 952.22 | 1.3894 | 1210.2
308.15 K, x2 = 0.4994 | 952.85 | 1.3875 | 1192.4
308.15 K, x2 = 0.6007 | 953.59 | 1.3855 | 1177.7
308.15 K, x2 = 0.7212 | 954.63 | 1.3832 | 1162.7
308.15 K, x2 = 0.8496 | 955.94 | 1.3807 | 1149.3
313.15 K, x2 = 0 | 946.42 | 1.3943 | 1290
313.15 K, x2 = 0.0645 | 946.39 | 1.3931 | 1268.8
313.15 K, x2 = 0.1406 | 946.49 | 1.3918 | 1247
313.15 K, x2 = 0.2248 | 946.58 | 1.3904 | 1226
313.15 K, x2 = 0.3025 | 946.66 | 1.389 | 1208.8
313.15 K, x2 = 0.3928 | 946.97 | 1.3874 | 1191.2
313.15 K, x2 = 0.4994 | 947.49 | 1.3854 | 1173.2
313.15 K, x2 = 0.6007 | 948.13 | 1.3834 | 1158.3
313.15 K, x2 = 0.7212 | 949.08 | 1.3811 | 1143
313.15 K, x2 = 0.8496 | 950.31 | 1.3786 | 1129.4
318.15 K, x2 = 0 | 941.72 | 1.3922 | 1272.7
318.15 K, x2 = 0.0645 | 941.57 | 1.3913 | 1251
318.15 K, x2 = 0.1406 | 941.44 | 1.39 | 1228.8
318.15 K, x2 = 0.2248 | 941.41 | 1.3885 | 1207.4
318.15 K, x2 = 0.3025 | 941.48 | 1.3871 | 1190.1
318.15 K, x2 = 0.3928 | 941.67 | 1.3853 | 1172.3
318.15 K, x2 = 0.4994 | 942.07 | 1.3833 | 1154.1
318.15 K, x2 = 0.6007 | 942.61 | 1.3814 | 1139.1
318.15 K, x2 = 0.7212 | 943.46 | 1.379 | 1123.5
318.15 K, x2 = 0.8496 | 944.62 | 1.3764 | 1109.7
323.15 K, x2 = 0 | 936.89 | 1.3902 | 1255.4
323.15 K, x2 = 0.0645 | 936.71 | 1.3894 | 1233.2
323.15 K, x2 = 0.1406 | 936.46 | 1.3881 | 1210.6
323.15 K, x2 = 0.2248 | 936.29 | 1.3865 | 1188.9
323.15 K, x2 = 0.3025 | 936.25 | 1.385 | 1171.4
323.15 K, x2 = 0.3928 | 936.34 | 1.3832 | 1153.5
323.15 K, x2 = 0.4994 | 936.62 | 1.3812 | 1135.1
323.15 K, x2 = 0.6007 | 937.08 | 1.3792 | 1119.9
323.15 K, x2 = 0.7212 | 937.86 | 1.3768 | 1104.2
323.15 K, x2 = 0.8496 | 938.96 | 1.3743 | 1090
